Measurements published in patent publication US10203327B2, “Organic compounds” (Novartis AG, priority 2013, dated 2019).
Where a SMILES comes first, the peptide text is derived from it.

Assays:
human GPR15 [1] = biological target: T1, human GPR15 (Homo sapiens, UniProt P49685); assay: Aequorin assay on human GPR15 stably expressed in recombinant cells; format: cell-based
T1 construct: expressed in transfected cells; host or cells: CHO-Aeq (with or without Galpha16), vector pEFIN3
T1 sequence (P49685 1-360): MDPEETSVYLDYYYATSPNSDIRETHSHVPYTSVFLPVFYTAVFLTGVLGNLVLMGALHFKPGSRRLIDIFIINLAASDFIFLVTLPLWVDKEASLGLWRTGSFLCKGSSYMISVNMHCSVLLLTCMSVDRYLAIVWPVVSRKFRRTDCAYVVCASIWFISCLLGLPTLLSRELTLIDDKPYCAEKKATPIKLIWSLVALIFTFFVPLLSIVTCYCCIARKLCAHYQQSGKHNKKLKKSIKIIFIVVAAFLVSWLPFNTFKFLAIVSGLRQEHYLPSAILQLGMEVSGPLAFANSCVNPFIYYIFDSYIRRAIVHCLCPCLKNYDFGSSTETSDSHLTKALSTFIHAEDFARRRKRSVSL
From the text: (§1) Throughout this specification, the term “Aequorin assay” refers to methods for performing high throughput functional screening of GPCRs. Said methods employ recombinant cell lines stably transfected with plasmids encoding apoaequorin, a GPCR of interest and if necessary, a recombinant G protein to redirect the coupling of the GPCR toward calcium signaling. After clonal selection, the best clones are selected on the basis of pharmacological characterization, high signal to background ratio and stability of expression. This method has been developed by Euroscreen SA, 47 Rue Adrienne Bolland, 6041 Gosselies, Belgium.
(§2) Plasmids encoding human and mouse GPR15 were stably transfected in CHO, 1321 N1 and HEK293 cells expressing the apoaequorin (CHO-Aeq, 1321-N1-Aeq and HEK-Aeq). GPR15 mRNA sequence integrities were checked using RT-PCR at T0 and T30 culture times in CHO cells.
An hGPR15 CHO-Gα16Aeq cell line was used for the Aequorin screening of Euroscreen proprietary libraries of natural ligands and tissue extracts collection. Specific activation of GPR15 over more than 20 other orphan GPCRs was identified in fractions from a colon aqueous extract.
(§3) QKPQLWVVPGALPQV peptide (SEQ ID NO: 2), corresponding to a putative tryptic C-term fragment (43-57) of the porcine peptide, was first synthesised for GPR15 evaluation.
(§4) Both peptides (i.e., those produced via CHO production and in vitro production in the agglutinin wheat germ extract system) were tested for GPR15 activation using Aequorin dose response curves.

human GPR23 = biological target: T2, human GPR23 (Homo sapiens, UniProt Q99677); assay: Aequorin assay on unrelated receptor hGPR23 (selectivity); format: cell-based; conditions: CHO-Aeq cells expressing hGPR23
T2 construct: expressed in transfected cells; host or cells: CHO-Aeq Galpha16
From the text: as §1, §3, §4

[2] = test system: human neonatal dermal fibroblasts; assay: IP-10 (CXCL10) release from human neonatal dermal fibroblasts; format: cell-based; conditions: GPR15-independent
From the text: GPR15L action is also mediated by a GPR15-independent mechanism in human neonatal dermal fibroblasts. […] Interferon gamma-induced protein 10 (IP-10), also known as C—X—C motif chemokine 10 (CXCL10), is secreted by monocytes, endothelial cells, and fibroblasts in response to IFN-γ. CXCL10 binds to the cell surface chemokine receptor CXCR3 and is implicated in such processes as chemoattraction for monocytes/macrophages, T cells, NK cells, and dendritic cells, promotion of T cell adhesion to endothelial cells, antitumor activity, and inhibition of bone marrow colony formation and angiogenesis.

human GPR15 [3] = biological target: T1, human GPR15; assay: cAMP HTRF assay on CHO and HEK cells stably expressing hGPR15; format: cell-based
SW48 cells [4] = assay: Intracellular calcium in SW48 colon cancer cells; format: cell-based, human; conditions: after priming
mouse GPR15 = biological target: T3, mouse GPR15 (Mus musculus, UniProt Q0VDU3); assay: Aequorin assay on mouse GPR15 stably expressed in CHO-Aeq cells; format: cell-based; conditions: CHO and IV produced polypeptide
T3 construct: expressed in transfected cells; host or cells: CHO-Aeq (with or without Galpha16), vector pEFIN5
T3 sequence (Q0VDU3 1-360): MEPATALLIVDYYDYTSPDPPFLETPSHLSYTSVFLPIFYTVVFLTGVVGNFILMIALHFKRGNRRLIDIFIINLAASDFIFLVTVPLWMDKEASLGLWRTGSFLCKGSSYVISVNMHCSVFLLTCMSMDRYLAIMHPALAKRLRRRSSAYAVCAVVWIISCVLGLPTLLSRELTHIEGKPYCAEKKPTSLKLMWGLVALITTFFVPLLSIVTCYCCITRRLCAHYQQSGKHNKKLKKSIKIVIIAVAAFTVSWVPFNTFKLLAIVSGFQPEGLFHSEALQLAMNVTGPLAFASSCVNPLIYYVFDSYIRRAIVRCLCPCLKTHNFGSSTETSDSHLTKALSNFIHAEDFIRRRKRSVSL
From the text: as §1, §2, §3

SW48 cells [5] = assay: Forskolin-induced cAMP in SW48 colon cancer cells; format: cell-based, human; conditions: pertussis toxin sensitive
human GPRC5C = biological target: T4, human GPRC5C (Homo sapiens, UniProt Q9NQ84); assay: Aequorin assay on unrelated receptor GPRC5C (selectivity); format: cell-based; conditions: CHO-Aeq cells expressing GPRC5C
T4 construct: expressed in transfected cells; host or cells: CHO-Aeq Galpha16

[6] = test system: subjects treated for psoriasis; conditions: after 4 weeks; cited from earlier work

T2 sequence (Q99677 whole entry): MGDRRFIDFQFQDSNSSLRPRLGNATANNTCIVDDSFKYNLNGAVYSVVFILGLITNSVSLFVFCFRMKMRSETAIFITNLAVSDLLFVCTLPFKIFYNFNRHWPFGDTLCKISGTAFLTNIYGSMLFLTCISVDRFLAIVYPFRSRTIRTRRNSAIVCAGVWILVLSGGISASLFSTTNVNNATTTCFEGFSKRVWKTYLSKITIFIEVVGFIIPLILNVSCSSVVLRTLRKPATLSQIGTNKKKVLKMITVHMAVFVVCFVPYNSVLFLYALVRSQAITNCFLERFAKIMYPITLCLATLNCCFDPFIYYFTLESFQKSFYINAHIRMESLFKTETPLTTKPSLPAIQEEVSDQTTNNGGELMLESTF
T4 sequence (Q9NQ84 24-441): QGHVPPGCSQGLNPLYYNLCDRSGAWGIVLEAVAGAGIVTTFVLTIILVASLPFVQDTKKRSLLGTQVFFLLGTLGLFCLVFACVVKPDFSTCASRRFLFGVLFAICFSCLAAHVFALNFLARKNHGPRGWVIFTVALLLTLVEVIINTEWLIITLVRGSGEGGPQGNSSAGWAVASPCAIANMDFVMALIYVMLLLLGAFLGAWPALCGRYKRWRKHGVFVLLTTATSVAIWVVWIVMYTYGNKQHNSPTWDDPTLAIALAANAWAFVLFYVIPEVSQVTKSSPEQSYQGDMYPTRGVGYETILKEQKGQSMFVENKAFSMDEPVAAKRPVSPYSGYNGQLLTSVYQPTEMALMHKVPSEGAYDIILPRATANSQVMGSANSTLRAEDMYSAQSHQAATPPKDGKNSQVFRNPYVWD

Compound: CC(C)C[C@H](NC(=O)[C@H](CCC(N)=O)NC(=O)[C@@H]1CCCN1C(=O)[C@H](CCCCN)NC(=O)[C@@H](N)CCC(N)=O)C(=O)N[C@@H](Cc1c[nH]c2ccccc12)C(=O)N[C@H](C(=O)N[C@H](C(=O)N1CCC[C@H]1C(=O)NCC(=O)N[C@@H](C)C(=O)N[C@@H](CC(C)C)C(=O)N1CCC[C@H]1C(=O)N[C@@H](CCC(N)=O)C(=O)N[C@H](C(=O)O)C(C)C)C(C)C)C(C)C [QKPQLWVVPGALPQV peptide, QKPQLWVVPGALPQV] (H-QKPQLWVVPGALPQV-OH; N-terminus and C-terminus assumed)
- activation of hGPR15 CHO cell line (human GPR15 [1]; hGPR15 CHO cell line, compared with EC50 of ~2 μM): same affinity
- calcium/luminescence response of hGPR23 cells (human GPR23): failed in responding

Compound: KRRPAKAWSGRRTRLCCHRVPSPNSTNLKGHHVRLCKPCK LEPEPRLWVVPGALPQV (KRRPAKAWSGRRTRLCCHRVPSPNSTNLKGHHVRLCKPCKLEPEPRLWVVPGALPQV) [c10orf99, made by CHO production, in vitro translation or synthesis]
- activation of hGPR15 (human GPR15 [1]; CHO-Aeq cells, ligand from CHO production or IV preparation): specifically activated
- activation of hGPR15 in HEK-Aeq Gα16 cells (human GPR15 [1]; stably transfected HEK-Aeq Gα16 cells): confirmed
- IP-10 release [2]: induces IP-10-release
- activation of hGPR15 (cAMP HTRF assay) (human GPR15 [3]): activation
- intracellular calcium levels (SW48 cells [4]): dose response dependent increase in intracellular calcium levels
- activation of mouse GPR15 receptor (mouse GPR15): Activation of mouse GPR15 receptor was observed
- forskolin-induced cAMP elevation (SW48 cells [5]): pertussis toxin sensitive decrease in forskolin-induced cAMP elevation
- calcium/luminescence response of hGPR23 cells (human GPR23): failed to induce any calcium signal
- calcium signal on GPRC5C (human GPRC5C): failed to induce any calcium signal

Compound: secukinumab: fully human monoclonal antibody that selectively binds to and neutralizes IL-17A
- c10orf99 mRNA [6]: significant decrease
- reduction in the Psoriasis Area and Severity Index (PAST) [6]: 58%
